From patent publication US8779004B2, “Stable emulsion formulations” (Amgen, Inc., priority 2006, dated 2014)
Marks after values point to notes of the source that are not given here.

Tests used:
[1] = pH and particle size of crude cinacalcet emulsions with different oils and phospholipids; assay type: physicochemical
Protocol: Table 4 illustrates the effect of different oils and phospholipids on pH and particle size of crude emulsions prepared for cinacalcet. The particle size distribution of the droplets was measured using light diffraction techniques after dilution of the emulsion in water. The particle size is represented by D(4,3) which is the volume corrected mean of the particles (units). As used herein, SBO—soybean oil (long chain triglycerides); MCT—medium chain triglycerides; STG—structured triglycerides (including PEGylated oils)
Coarse prototype emulsion formulations were prepared at a batch size of 10 mLs by an Ultraturrax T25 S1 Janke and Kunkel blade homogenizer equipped with a 10 mm rotostator, followed by sonication from a Vibracell Ultrasonicator with a titanium microtip probe. Batches at a 40 mL size were prepared in a similar manner, with the exception of the ultrasonicator having a ¾″ titanium probe tip.
Coarse prototype emulsions at a batch size of 10-40 mLs were prepared by mixing the oil with lecithin by a blade mixer at 60° C. protected by a nitrogen headspace. Cinacalcet was added and mixed well, followed by the addition of the aqueous phase containing glycerin and buffer until a homogenous mixture was made. A sonicator probe was used to further process the emulsion premix while maintaining the nitrogen headspace. Coarse emulsions prepared by sonication were centrifuged at 3K RPM to remove gross particulates on a Dupont Sorval centrifuge, and dispensed by removal of the top contents of the emulsion for evaluation.

[2] = Solubility of calcimimetics in oil phases (RP-HPLC); assay type: physicochemical; settings: oil or lipid, thermodynamic from solid
Protocol: The solubility measurements of the compounds were prepared by the addition of 1 g of drug substance to two milliliters of oil into a Wheaton 5 mL vial. The headspace was sparged with nitrogen, and enclosed with a West 4405/50 gray Teflon coated stopper and manually sealed by an aluminum overseal. The preparations were repeated again with the oils containing either purified egg or soy lecithin. All labeled vials were shaken at room temperature for eighteen hours on a platform shaker. After eighteen hours, the samples were diluted in mobile phase, and analyzed by the RP-HPLC method. Table 2 summarizes solubility results (expressed in mg/mL) of cinacalcet in various oil phases.

[3] = crude emulsion, MCT 5%, 1% Purified Egg Lecithin
[4] = crude emulsion, MCT 5%, 1% Purified Soy Lecithin
[5] = crude emulsion, MCT 5%, 2% Purified Egg Lecithin
[6] = crude emulsion, MCT 5%, % Purified Soy Lecithin
[7] = crude emulsion, MCT 10%, 1% Purified Egg Lecithin
[8] = crude emulsion, MCT 10%, 1% Purified Soy Lecithin
[9] = crude emulsion, MCT 10%, 2% Purified Egg Lecithin
[10] = crude emulsion, MCT 10%, % Purified Soy Lecithin
[11] = crude emulsion, MCT 20%, 1% Purified Egg Lecithin
[12] = crude emulsion, MCT 20%, 1% Purified Soy Lecithin
[13] = crude emulsion, MCT 20%, 2% Purified Egg Lecithin
[14] = crude emulsion, MCT 20%, % Purified Soy Lecithin
[15] = crude emulsion, SBO 5%, 1% Purified Egg Lecithin
[16] = crude emulsion, SBO 5%, 1% Purified Soy Lecithin
[17] = crude emulsion, SBO 5%, 2% Purified Egg Lecithin
[18] = crude emulsion, SBO 5%, % Purified Soy Lecithin
[19] = crude emulsion, SBO 10%, 1% Purified Egg Lecithin
[20] = crude emulsion, SBO 10%, 1% Purified Soy Lecithin
[21] = crude emulsion, SBO 10%, 2% Purified Egg Lecithin
[22] = crude emulsion, SBO 10%, % Purified Soy Lecithin
[23] = crude emulsion, SBO 20%, 1% Purified Egg Lecithin
[24] = crude emulsion, SBO 20%, 1% Purified Soy Lecithin
[25] = crude emulsion, SBO 20%, 2% Purified Egg Lecithin
[26] = crude emulsion, SBO 20%, % Purified Soy Lecithin
[27] = crude emulsion, STG 5%, 1% Purified Egg Lecithin
[28] = crude emulsion, STG 5%, 2% Purified Egg Lecithin
[29] = crude emulsion, STG 10%, 1% Purified Egg Lecithin
[30] = crude emulsion, STG 10%, 2% Purified Egg Lecithin
[31] = crude emulsion, STG 20%, 1% Purified Egg Lecithin
[32] = crude emulsion, STG 20%, 2% Purified Egg Lecithin

For `C[C@@H](NCCCc1cccc(C(F)(F)F)c1)c1cccc2ccccc12` [Cinacalcet, N-(1-(R)-(1-naphthyl)ethyl]-3-[3-(trifluoromethyl)phenyl]-1-aminopropane], the D(4, 3) [1, 3] was 0.39 µm, the pH [1, 3] was 8.58 and the D(4, 3) [1, 4] was 0.36 µm. For the same compound, the pH [1, 4] was 9.12, the D(4, 3) [1, 5] was 0.35 µm and the pH [1, 5] was 8.39. The D(4, 3) [1, 6] was 0.32 µm, the PH [1, 6] was 8.97 and the D(4, 3) [1, 7] was 0.53 µm. It also gave a pH [1, 7] of 8.61, a D(4, 3) [1, 8] of 0.21 µm and a pH [1, 8] of 9.09. It also gave a D(4, 3) [1, 9] of 0.4 µm, a pH [1, 9] of 8.29 and a D(4, 3) [1, 10] of 0.44 µm. For the same compound, the PH [1, 10] was 8.99, the D(4, 3) [1, 11] was 0.57 µm and the pH [1, 11] was 8.41. The D(4, 3) [1, 12] was 0.47 µm, the pH [1, 12] was 8.81 and the D(4, 3) [1, 13] was 0.42 µm. For the same compound, the pH [1, 13] was 8.23, the D(4, 3) [1, 14] was 0.31 µm and the PH [1, 14] was 8.95. For the same compound, the D(4, 3) [1, 15] was 1.07 µm, the pH [1, 15] was 8.81 and the D(4, 3) [1, 16] was 1.3 µm. It also gave a pH [1, 16] of 8.94, a D(4, 3) [1, 17] of 0.77 µm and a pH [1, 17] of 8.53. It also gave a D(4, 3) [1, 18] of 0.81 µm, a PH [1, 18] of 8.99 and a D(4, 3) [1, 19] of 0.65 µm. For the same compound, the pH [1, 19] was 8.80, the D(4, 3) [1, 20] was 0.98 µm and the pH [1, 20] was 8.86. It also gave a D(4, 3) [1, 21] of 0.68 µm, a pH [1, 21] of 8.46 and a D(4, 3) [1, 22] of 0.4 µm. For the same compound, the PH [1, 22] was 8.91, the D(4, 3) [1, 23] was 1.42 µm and the pH [1, 23] was 8.62. It also gave a D(4, 3) [1, 24] of 1.4 µm, a pH [1, 24] of 8.73 and a D(4, 3) [1, 25] of 1.06 µm. For the same compound, the pH [1, 25] was 8.39, the D(4, 3) [1, 26] was 0.49 µm and the PH [1, 26] was 8.82. It also gave a D(4, 3) [1, 27] of 0.72 µm, a pH [1, 27] of 8.55 and a pH ([1]; crude emulsion, STG 5%, 1% Purified Soy Lecithin) of 9.09. The D(4, 3) [1, 28] was 0.52 µm, the pH [1, 28] was 8.46 and the PH ([1]; crude emulsion, STG 5%, % Purified Soy Lecithin) was 9.04. It also gave a D(4, 3) [1, 29] of 1.23 µm, a pH [1, 29] of 8.71 and a pH ([1]; crude emulsion, STG 10%, 1% Purified Soy Lecithin) of 9.00. The D(4, 3) [1, 30] was 0.81 µm, the pH [1, 30] was 8.37 and the PH ([1]; crude emulsion, STG 10%, % Purified Soy Lecithin) was 9.01. It also gave a D(4, 3) [1, 31] of 0.84 µm, a pH [1, 31] of 8.52 and a pH ([1]; crude emulsion, STG 20%, 1% Purified Soy Lecithin) of 8.99. The D(4, 3) [1, 32] was 1.18 µm, the pH [1, 32] was 8.28 and the PH ([1]; crude emulsion, STG 20%, % Purified Soy Lecithin) was 9.07. For the same compound, the “D(4, 3)” value ([1]; emulsion, STG 5%, 1% Purified Soy Lecithin, after a single autoclaving cycle) was 0.40^a, the “D(4, 3)” value ([1]; emulsion, STG 5%, % Purified Soy Lecithin, after a single autoclaving cycle) was 0.34^a and the “D(4, 3)” value ([1]; emulsion, STG 10%, 1% Purified Soy Lecithin, after a single autoclaving cycle) was 0.73^a. The “D(4, 3)” value ([1]; emulsion, STG 10%, % Purified Soy Lecithin, after a single autoclaving cycle) was 0.41^a, the “D(4, 3)” value ([1]; emulsion, STG 20%, % Purified Soy Lecithin, after a single autoclaving cycle) was 0.46^a and the solubility at 18 h ([2]; Long Chain Triglycerides (oil phase) with egg lecithin, Long Chain Triglycerides, Egg lecithin) was greater than 362 mg/mL. For the same compound, the solubility at 18 h ([2]; Long Chain Triglycerides (oil phase) with soy lecithin, Long Chain Triglycerides, Soy lecithin) was greater than 304 mg/mL, the solubility at 18 h ([2]; Long Chain Triglycerides (oil phase), Long Chain Triglycerides, no lecithin) was greater than 340 mg/mL and the solubility at 18 h ([2]; Medium Chain Triglycerides (oil phase) with egg lecithin, Medium Chain Triglycerides, Egg lecithin) was greater than 349 mg/mL. It also gave a solubility at 18 h ([2]; Medium Chain Triglycerides (oil phase) with soy lecithin, Medium Chain Triglycerides, Soy lecithin) greater than 327 mg/mL, a solubility at 18 h ([2]; Medium Chain Triglycerides (oil phase), Medium Chain Triglycerides, no lecithin) greater than 341 mg/mL and a solubility at 18 h ([2]; Structured Triglycerides (oil phase) with egg lecithin, Structured Triglycerides, Egg lecithin) greater than 339 mg/mL. The solubility at 18 h ([2]; Structured Triglycerides (oil phase) with soy lecithin, Structured Triglycerides, Soy lecithin) was greater than 317 mg/mL and the solubility at 18 h ([2]; Structured Triglycerides (oil phase), Structured Triglycerides, no lecithin) was greater than 368 mg/mL.
